Here are results for three compounds from patent US8722849B2, “Polypeptides” (Novo Nordisk A/S, priority 2011, dated 2014).

≈ marks a conversion by molar mass, not a printed value. Like-named read-outs stand apart in the source and are kept apart here. Starred links: 1 amine or outer side, 2 acyl side, 3 side chain; linkers in the order of their positions; H or OH if unused. Positions of bridges follow the written chain, without caps; N, C: chain ends. Residues, ends and D or L forms follow the SMILES beside them. *: point of attachment. C20 diacid = O=C(O)CCCCCCCCCCCCCCCCCCC(=O)*; γGlu = O=C(O)[C@H](CCC(=O)[*:2])N[*:1]; AEEA = NCCOCCOCC(=O)O Some results are limits rather than exact numbers.

The nature of series [1]: Assay (IV) determination of solubility. Format: physicochemical. In short, it runs like this:
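Solubility was profiled across pH 3.0–8.0 after 18 hours at room temperature: a ~500 nmol/ml aqueous polypeptide solution was diluted 1:1 into 100 mM glycylglycine or bistrispropane buffers. After centrifugation, HPLC gave the dissolved concentration.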

Series [2] addresses T1, human calcitonin receptor (Homo sapiens, UniProt P30988).
T1 construct: expressed in transfected cells; host or cells: BHK570
T1 sequence (P30988 25-474): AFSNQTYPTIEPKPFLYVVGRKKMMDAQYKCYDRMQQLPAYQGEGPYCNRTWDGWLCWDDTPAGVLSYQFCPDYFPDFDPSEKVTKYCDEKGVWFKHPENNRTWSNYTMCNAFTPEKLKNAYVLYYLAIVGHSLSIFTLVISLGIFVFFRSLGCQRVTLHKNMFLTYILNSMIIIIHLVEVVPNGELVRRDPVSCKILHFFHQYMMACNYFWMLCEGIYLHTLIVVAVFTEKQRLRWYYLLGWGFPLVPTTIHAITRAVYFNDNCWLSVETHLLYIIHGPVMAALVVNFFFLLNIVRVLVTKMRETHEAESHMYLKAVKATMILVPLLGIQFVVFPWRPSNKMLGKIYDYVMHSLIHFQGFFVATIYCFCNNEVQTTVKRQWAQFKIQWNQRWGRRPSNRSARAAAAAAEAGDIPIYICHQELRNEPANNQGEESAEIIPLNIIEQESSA
Nature of the series: Assay (II)a functional CRE-luciferase assay, human calcitonin receptor. Format: cell-based.

Series [3] concerns the target T2, human amylin receptor (amylin 3(a) receptor: human calcitonin receptor + RAMP-3) (Homo sapiens, UniProt O60896+P30988).
T2 construct: expressed in transfected cells; host or cells: BHK570
T2 sequence (P30988 25-474): T1 sequence (P30988 25-474)
T2 sequence (O60896 24-148 partner): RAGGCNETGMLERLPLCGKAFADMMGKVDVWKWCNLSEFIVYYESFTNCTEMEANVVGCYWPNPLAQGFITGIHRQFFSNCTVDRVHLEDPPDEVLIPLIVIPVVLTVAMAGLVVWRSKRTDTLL
As to the kind of experiment: Assay (II)a functional CRE-luciferase assay, human amylin receptor. It counts as cell-based.

Where [4] appears, read: Table 7, human calcitonin (CTa) receptor.
Setting [5] is: Table 2, BHK amylin 3(a)-receptor/CRE-luc cells.
[6] abbreviates: Table 3, BHK amylin 3(a)-receptor/CRE-luc cells.
Where [7] appears, read: bistrispropane buffer, pH 6, pH 6.0, read-out: Solubility pH 6.0.
Setting [8] is: bistrispropane buffer, pH 6.5, pH 6.5, read-out: Solubility pH 6.5.
[9] abbreviates: bistrispropane buffer, pH 7, pH 7.0, 18 hours at room temperature, Table 3, read-out: Solubility pH 7.0.
[10] abbreviates: bistrispropane buffer, pH 7, pH 7.0, read-out: Solubility pH 7.0.
Where [11] appears, read: bistrispropane buffer, pH 7.5, pH 7.5, read-out: Solubility pH 7.5.
[12] abbreviates: bistrispropane buffer, pH 8, pH 8.0, read-out: Solubility pH 8.0.
[13] abbreviates: glycylglycine buffer, pH 3, pH 3.0, read-out: Solubility pH 3.0.
[14] abbreviates: glycylglycine buffer, pH 4, pH 4.0, read-out: Solubility pH 4.0.
Where [15] appears, read: glycylglycine buffer, pH 5, pH 5.0, read-out: Solubility pH 5.0.

Turning to `CC[C@H](C)[C@H](NC(=O)[C@@H]1CCCN1C(=O)CNC(=O)[C@H](Cc1ccccc1)NC(=O)[C@H](CC(N)=O)NC(=O)[C@H](CCC(=O)O)NC(=O)[C@H](CO)NC(=O)[C@H](CO)NC(=O)[C@H](Cc1c[nH]cn1)NC(=O)[C@H](Cc1c[nH]cn1)NC(=O)[C@H](CC(C)C)NC(=O)[C@H](Cc1ccccc1)NC(=O)[C@H](CCC(=O)O)NC(=O)[C@H](C)NC(=O)[C@H](CC(C)C)NC(=O)[C@H](CCCNC(=N)N)NC(=O)[C@H](CCC(N)=O)NC(=O)[C@@H](NC(=O)[C@H](C)NC(=O)[C@@H]1CSSC[C@H](NC(=O)[C@H](CCCCN)NC(=O)COCCOCCNC(=O)COCCOCCNC(=O)CC[C@H](NC(=O)CCCCCCCCCCCCCCCCCCC(=O)O)C(=O)O)C(=O)N[C@@H](CC(N)=O)C(=O)N[C@@H]([C@@H](C)O)C(=O)N[C@@H](C)C(=O)N[C@@H]([C@@H](C)O)C(=O)N1)[C@@H](C)O)C(=O)N[C@@H](CC(C)C)C(=O)N1CCC[C@H]1C(=O)N1CCC[C@H]1C(=O)N[C@H](C(=O)N[C@@H](CC(N)=O)C(=O)N[C@H](C(=O)NCC(=O)N[C@@H](CO)C(=O)N[C@@H](CC(N)=O)C(=O)N[C@H](C(=O)N1CCC[C@H]1C(N)=O)[C@@H](C)O)C(C)C)[C@@H](C)O` [Example 167] ({C20 diacid-γGlu-AEEA-AEEA}-KCNTATCATQRLAEFLHHSSENFGPILPPTNVGSNTP-NH2; disulfide 2-7), the solubility in series [1] (pH 3, pH 3.0, read-out: Solubility pH 3.0) was over 200 µM; in series [1] (pH 4, pH 4.0, 18 hours at room temperature, Table 2, read-out: Solubility pH 4.0) it was over 200 µM; in series [1] (pH 4, pH 4.0, read-out: Solubility pH 4.0), over 200 µM; in series [1] (pH 5, pH 5.0, read-out: Solubility pH 5.0), over 200 µM; in series [1] (pH 6, pH 6.0, read-out: Solubility pH 6.0), over 200 µM; in series [1] (pH 6.5, pH 6.5, read-out: Solubility pH 6.5), over 200 µM. Further, the solubility in series [1] (pH 7, pH 7.0, 18 hours at room temperature, Table 3, read-out: Solubility pH 7.0) was over 200 µM; in series [1] (pH 7, pH 7.0, read-out: Solubility pH 7.0), over 200 µM; in series [1] (pH 7.5, pH 7.5, read-out: Solubility pH 7.5) it was over 200 µM; in series [1] (pH 8, pH 8.0, read-out: Solubility pH 8.0), over 200 µM. Also, the EC50 in series [2] (setting [4]) was determined as 0.113 nM; in series [2] (Table 11, read-out: CTa receptor human EC50) it was 0.113 nM; in series [3] (setting [5]), 0.203 nM; in series [3] (setting [6]), 0.203 nM; in series [3] (Table 4), 0.203 nM; in series [3] (Table 6, human amylin receptor), 0.203 nM. Moreover, the 50% effective concentration (EC50) came to 0.203 nM in series [3] (Table 7, human amylin receptor) and 0.203 nM in series [3] (Table 11).
`CC[C@H](C)[C@H](NC(=O)[C@@H]1CCCN1C(=O)CNC(=O)[C@H](Cc1ccccc1)NC(=O)[C@H](CO)NC(=O)[C@H](CO)NC(=O)[C@H](CO)NC(=O)[C@H](CO)NC(=O)[C@H](CCCNC(=N)N)NC(=O)[C@H](Cc1c[nH]cn1)NC(=O)[C@H](CC(C)C)NC(=O)[C@H](Cc1ccccc1)NC(=O)[C@H](CCC(=O)O)NC(=O)[C@H](C)NC(=O)[C@H](CC(C)C)NC(=O)[C@H](CCCNC(=N)N)NC(=O)[C@H](CCC(N)=O)NC(=O)[C@@H](NC(=O)[C@H](C)NC(=O)[C@@H]1CSSC[C@H](NC(=O)[C@H](Cc2c[nH]cn2)NC(=O)CC[C@H](NC(=O)CCCCCCCCCCCCCCCCCCC(=O)O)C(=O)O)C(=O)NCC(=O)N[C@@H]([C@@H](C)O)C(=O)N[C@@H](C)C(=O)N[C@@H]([C@@H](C)O)C(=O)N1)[C@@H](C)O)C(=O)N[C@@H](CC(C)C)C(=O)N1CCC[C@H]1C(=O)N1CCC[C@H]1C(=O)N[C@H](C(=O)N[C@@H](CCC(=O)O)C(=O)N[C@H](C(=O)NCC(=O)N[C@@H](CO)C(=O)N[C@@H](CCC(=O)O)C(=O)N[C@H](C(=O)N[C@@H](Cc1ccc(O)cc1)C(N)=O)[C@@H](C)O)C(C)C)[C@@H](C)O` [Example 16, N-alpha-[(S)-4-Carboxy-4-(19-carboxynonadecanoylamino)butyryl]-[His1,Gly3,Glu14,His17,Arg18,Ser21,Ser22,Glu31,Glu35]-pramlintide] ({C20 diacid-γGlu}-HCGTATCATQRLAEFLHRSSSSFGPILPPTEVGSETY-NH2; disulfide 2-7 (inferred)): the solubility at 18 h in series [1] (setting [7]) came to 34 µM (≈ 150 µg/mL); in series [1] (setting [8]) it was 12 µM (≈ 52.8 µg/mL); in series [1] (setting [9]), 104 µM (≈ 458 µg/mL); in series [1] (setting [10]), 104 µM (≈ 458 µg/mL); in series [1] (setting [11]), 122 µM (≈ 537 µg/mL); in series [1] (setting [12]), 129 µM (≈ 568 µg/mL). Besides, the solubility at 18 h was 179 µM (≈ 788 µg/mL) in series [1] (setting [13]), 80 µM (≈ 352 µg/mL) in series [1] (setting [14]) and 1 µM (≈ 4.4 µg/mL) in series [1] (setting [15]). In addition, the values for the EC50 in series [2] (setting [4]) and in series [3] (setting [6]) were 0.198 nM and 0.313 nM, respectively.
Turning to `CC[C@H](C)[C@H](NC(=O)[C@@H]1CCCN1C(=O)CNC(=O)[C@H](Cc1ccccc1)NC(=O)[C@H](CC(N)=O)NC(=O)[C@H](CC(N)=O)NC(=O)[C@H](CO)NC(=O)[C@H](CO)NC(=O)[C@H](Cc1c[nH]cn1)NC(=O)[C@H](CCCNC(=N)N)NC(=O)[C@H](CC(C)C)NC(=O)[C@H](Cc1ccccc1)NC(=O)[C@H](CCC(=O)O)NC(=O)[C@H](C)NC(=O)[C@H](CC(C)C)NC(=O)[C@H](CCCNC(=N)N)NC(=O)[C@H](CCC(N)=O)NC(=O)[C@@H](NC(=O)[C@H](C)NC(=O)[C@@H]1CSSC[C@H](NC(=O)[C@H](CCCNC(=N)N)NC(=O)[C@H](CCC(=O)O)NC(=O)[C@H](CCC(=O)O)NC(=O)CC[C@H](NC(=O)CCCCCCCCCCCCCCCCCCC(=O)O)C(=O)O)C(=O)N[C@@H](CC(N)=O)C(=O)N[C@@H]([C@@H](C)O)C(=O)N[C@@H](C)C(=O)N[C@@H]([C@@H](C)O)C(=O)N1)[C@@H](C)O)C(=O)N[C@@H](CC(C)C)C(=O)N1CCC[C@H]1C(=O)N1CCC[C@H]1C(=O)N[C@H](C(=O)N[C@@H](CC(N)=O)C(=O)N[C@H](C(=O)NCC(=O)N[C@@H](CO)C(=O)N[C@@H](CC(N)=O)C(=O)N[C@H](C(=O)N1CCC[C@H]1C(N)=O)[C@@H](C)O)C(C)C)[C@@H](C)O` [Example 155, N-alpha-[(S)-4-Carboxy-4-(19-carboxynonadecanoylamino)butyryl]-Glu-Glu-[Arg1,Glu14,Arg17,Pro37]-pramlintide] ({C20 diacid-γGlu}-EERCNTATCATQRLAEFLRHSSNNFGPILPPTNVGSNTP-NH2; disulfide 4-9 (inferred); C-terminus assumed), the solubility at 18 h in series [1] (setting [7]), in series [1] (setting [8]), in series [1] (setting [9]), in series [1] (setting [10]), in series [1] (setting [11]) and in series [1] (setting [12]) was over 200 µM each time. Moreover, the solubility at 18 h was over 200 µM in series [1] (setting [13]); over 200 µM in series [1] (glycylglycine buffer, pH 4, pH 4.0, 18 hours at room temperature, Table 2, read-out: Solubility pH 4.0); over 200 µM in series [1] (setting [14]); over 200 µM in series [1] (setting [15]). Also, the half-maximal effective concentration (EC50) was determined as 0.526 nM in series [2] (setting [4]) and 0.313 nM in series [3] (setting [5]).

A word on the solubility: it is how much of the substance goes into solution per volume. Broadly, the EC50 is the concentration at which the effect is half-maximal.
